Results taken from US10335398B2 (MAXINASE LIFE SCIENCES LIMITED, priority 2015, dated 2019).

Legend:
[1] = Pharmacokinetic study on Bioadhesive Composition in Beagle dogs; settings: for half-life: t1/2, Beagle dogs;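 as to all read-outs here: eight Beagle dogs (4 male, 4 female), five-period crossover with 3-day washouts, plasma levels quantified by validated LC-MS/MS, oral dosing after roughly 16 h fast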
Protocol: (§1) Eight Beagle dogs (4 male and 4 female) participated in the study. The study was preceded in five cross-over periods, separated by 3-day washout period. For oral administration, dogs were fasted about 16 hours prior to the dosing but had free access to water. […] Each oral dosing was administered with 20-30 mL of water. […] Blood samples were collected at pre-dose (0 min) and at 5, 10, 15, 30, 45 minutes; and at 1, 2, 3, 4, 6, 8, 12, 24 hours post-dose. After the plasma-separation process, the samples were analyzed by a validated LC-MS/MS method.

in vivo = settings: both, beagle, dog, plasma, 1 mg
Protocol: as §1

[2] = Beagle dogs, analyte 7-OH Granisetron, IV Kytril® IV Infusion 1 mg
[3] = Beagle dogs, analyte 7-OH Granisetron, nasal GNS-B01 0.5 mg
[4] = Beagle dogs, analyte 7-OH Granisetron, nasal GNS-B01 1.0 mg
[5] = Beagle dogs, analyte 7-OH Granisetron, nasal GNS-B01 2 mg
[6] = Beagle dogs, analyte 7-OH Granisetron, oral Kytril® tablet 1 mg

For `CN1[C@@H]2CCC[C@H]1C[C@H](NC(=O)c1nn(C)c3c(O)cccc13)C2` [7-OH Granisetron], the “amount of 7-OH Granisetron in plasma after oral dosing compared to intranasal administration” value ([1]; Beagle dogs) was “about twice as much”, the AUC0-last [1, 2] was 1389 ± 465 ng·min/mL and the “AUC0-∞” value [1, 2] was 1419 ± 470 ng·min/mL. For the same compound, the CL/F [1, 2] was 0.77 ± 0.25 L/min, the Cmax [1, 2] was 4.28 ± 1.20 ng/mL and the MRT [1, 2] was 4.95 ± 0.317 h. For the same compound, the Tmax [1, 2] was 0.813 ± 0.222 h, the t1/2 [1, 2] was 4.6 ± 0.0033 h and the AUC0-last [1, 3] was 364 ± 263 ng·min/mL. For the same compound, the “AUC0-∞” value [1, 3] was 386 ± 264 ng·min/mL, the CL/F [1, 3] was 2.98 ± 4.01 L/min and the MRT [1, 3] was 3.92 ± 0.817 h. For the same compound, the Tmax [1, 3] was 1 ± 0.423 h, the t1/2 [1, 3] was 3.88 ± 1.2 h and the AUC0-last [1, 4] was 664 ± 520 ng·min/mL. The “AUC0-∞” value [1, 4] was 691 ± 520 ng·min/mL, the CL/F [1, 4] was 2.70 ± 2.36 L/min and the Cmax [1, 4] was 2.18 ± 1.54 ng/mL. For the same compound, the MRT [1, 4] was 4.42 ± 0.8 h, the Tmax [1, 4] was 1.06 ± 0.395 h and the t1/2 [1, 4] was 4.37 ± 0.783 h. For the same compound, the AUC0-last [1, 5] was 1549 ± 771 ng·min/mL, the “AUC0-∞” value [1, 5] was 1609 ± 810 ng·min/mL and the CL/F [1, 5] was 1.50 ± 0.61 L/min. It also gave a Cmax [1, 5] of 4.56 ± 2.01 ng/mL, an MRT [1, 5] of 5.42 ± 0.35 h and a Tmax [1, 5] of 1.09 ± 0.597 h. The t1/2 [1, 5] was 5.1 ± 0.55 h, the AUC0-last [1, 6] was 1197 ± 446 ng·min/mL and the “AUC0-∞” value [1, 6] was 1246 ± 473 ng·min/mL. It also gave a CL/F [1, 6] of 0.90 ± 0.32 L/min, a Cmax [1, 6] of 5.73 ± 2.17 ng/mL and an MRT [1, 6] of 4.5 ± 0.683 h. The Tmax [1, 6] was 0.625 ± 0.267 h, the t1/2 [1, 6] was 4.58 ± 1.02 h and the Cmax ([1]; Beagle dogs, analyte metabolite 7-OH Granisetron, nasal GNS-B01 0.5 mg granisetron) was 1.26 ± 0.845 ng/mL.
In the case of `CN1[C@@H]2CCC[C@H]1C[C@@H](NC(=O)c1nn(C)c3ccccc13)C2` [Granisetron, 1-methyl-N-((1R,3r,5S)-9-methyl-9-azabicyclo[3.3.1]nonan-3-yl)-1H-indazole-3-carboxamide, reference compound], the CL/F ([1]; Beagle dogs, analyte Granisetron, nasal GNS-B01 0.5 mg/dog) is reported as 4.20 ± 4.35 L/min, the CL/F ([1]; Beagle dogs, analyte Granisetron, nasal GNS-B01 1.0 mg/dog) is reported as 4.26 ± 3.69 L/min and the CL/F ([1]; Beagle dogs, analyte Granisetron, nasal GNS-B01 2 mg/dog) is reported as 2.80 ± 2.18 L/min. It also gave a Tmax ([1]; both, beagle, dog, plasma, inhaled or intranasal, 0.5 mg, Tmax, Beagle dogs, analyte Granisetron, nasal GNS-B01 0.5 mg/dog) of 0.448 h, a half-life ([1]; both, beagle, dog, plasma, inhaled or intranasal, 0.5 mg, analyte Granisetron, nasal GNS-B01 0.5 mg/dog) of 0.997 ± 0.245 h and a Tmax ([1]; both, beagle, dog, plasma, inhaled or intranasal, 1 mg, Tmax (range), Beagle dogs, intranasal administration 1.0 mg/dog) of 0.25 to 0.75 h. It also gave a Tmax ([1]; both, beagle, dog, plasma, inhaled or intranasal, 1 mg, Tmax, Beagle dogs, analyte Granisetron, nasal GNS-B01 1.0 mg/dog) of 0.438 h, a half-life ([1]; both, beagle, dog, plasma, inhaled or intranasal, 1 mg, analyte Granisetron, nasal GNS-B01 1.0 mg/dog) of about 1 h and a Tmax ([1]; both, beagle, dog, plasma, inhaled or intranasal, 2 mg, Tmax, Beagle dogs, analyte Granisetron, nasal GNS-B01 2 mg/dog) of 0.397 h. It also gave a half-life ([1]; both, beagle, dog, plasma, inhaled or intranasal, 2 mg, analyte Granisetron, nasal GNS-B01 2 mg/dog) of 1.3 ± 0.352 h, a Tmax ([1]; both, beagle, dog, plasma, po, 1 mg, Tmax (range), Beagle dogs, oral administration 1.0 mg/dog) of 0.5 to 1 h and an AUC(0-t) (in vivo; iv) of 28.4 ng·h/mL. For the same compound, the MRT (in vivo; iv) was 1.24 h, the half-life (in vivo; iv) was 1.1 ± 0.178 h and the MRT (in vivo; po) was 1.5 h. The Vd/F (in vivo; po) was 531 ± 234 L and the half-life (in vivo; po) was about 1 h.
